According to patent US11350582B2, “Plant varieties by application of endocides” (Stephen F. Austin State University, priority 2015, dated 2022):

Columns and labels:
[1] = test system: common species associate with S. molesta or species growing in nearby habitats; assay: Field selectivity test on associated plant species (Example 16); assay type: in vivo; conditions: 0.5% with 0.25% soap; after two foliar applications
Experimental: General Experimental Procedure: Field experiments were conducted in an isolated pond in east Texas, United States. The pond was infested with type III S. molesta plants that formed dense mats along the edge and type I and II plants floating on the water surface. 4-hydroxybenzoic and 3,4-dihydroxybenzoic acids were purchased from a commercial source (99.9%, HPLC analysis). 500 m^2 of S. molesta was treated with 50 L 0.5% 4-hydroxybenzoic acid mixed with 0.25% DAWN® dish soap and 500 m^2 of S. molesta was treated with 50 L 0.5% 3,4-dihydroxybenzoic acid mixed with 0.25% DAWN® dish soap by Solo 433 motorized backpack sprayer. Plant growth and survival status were documented through photographs and the living biomass was sampled 48 hrs after each treatment. The experimental species for selectivity tests were mainly common species associate with S. molesta or species growing in nearby habitats. […]

[2] = test system: king protea explants; conditions: MS medium culture, cited from earlier work
[3] = test system: S. molesta; assay: Field test in an isolated pond, foliar spray with DAWN dish soap (Example 16); assay type: in vivo, Salvinia molesta; conditions: 0.5% with 0.25% soap; for small S. molesta plants dead: 48 h after the first treatment; for new growths induced (small plants): after first treatment; for fate of newly emerged type I plants: after the second treatments; for type III S. molesta plants on the top layer of the dense mats killed or severely injured: within 48 hrs of the first treatment
Experimental: General Experimental Procedure: Field experiments were conducted in an isolated pond in east Texas, United States. The pond was infested with type III S. molesta plants that formed dense mats along the edge and type I and II plants floating on the water surface. 4-hydroxybenzoic and 3,4-dihydroxybenzoic acids were purchased from a commercial source (99.9%, HPLC analysis). 500 m^2 of S. molesta was treated with 50 L 0.5% 4-hydroxybenzoic acid mixed with 0.25% DAWN® dish soap and 500 m^2 of S. molesta was treated with 50 L 0.5% 3,4-dihydroxybenzoic acid mixed with 0.25% DAWN® dish soap by Solo 433 motorized backpack sprayer. Plant growth and survival status were documented through photographs and the living biomass was sampled 48 hrs after each treatment. The experimental species for selectivity tests were mainly common species associate with S. molesta or species growing in nearby habitats. The species included one fern species, Carolina mosquito fern (A. caroliniana), and 11 herbaceous invasive aquatic species of angiosperms (flowering plants), namely, water hyacinth (Eichharnia crassipes (Mart.) Solms) of the family Pontederiaceae, least duckweed (Lemna minuta) and Brazilian watermeal (Wolffia brasillensis Weddell) of the family Araceae, and hydrilla (Hydrilla verticillata (L.f.) Royle) of the family Hydrocharitaceae, alligator weed (Alternanthera philoxeroides Griseb.) of the family Amaranthaceae, knotweed (Polygonum sp.) and redvine (Brunnichia ovata Walter) of the family Polygonaceae, water primrose (Ludwigia sp.) of the family Onagraceae, cattail (Typha latifolia L.) of the family Typhaceae, proliferating bulrush (Isolepis prolifera (Rottb.) R. Br.) of the family Cyperaceae, and coontail (Ceratophyllum demersum L.) of the family Ceratophyllaceae and four woody plants, namely, baldcypress (Taxodium distichum (L.) Rich.) of the family Cupressaceae, loblolly pine (Pinus taeda L.) of the family Pinaceae, Chinese tallow (T. sebifera), and buttonbush (Cephalanthus occidentalis L.) of the family Rubiaceae. At least 30 plants for each of 12 herbaceous species and three seedlings of each of the four woody species were sprayed during the treatment of S. molesta.

[4] = test system: taro; conditions: in vivo; cited from earlier work
[5] = test system: rhizosphere bacterial population; conditions: cited from earlier work
[6] = test system: S. molesta; assay: Field test in isolated ponds, plots on water surface and soils (Example 17); assay type: in vivo, Salvinia molesta; conditions: 0.5% 4-hydroxybenzoic acid; for % of Living Biomass/Total Biomass (mean ± s.d.), Type I and II Plants on Water Surface / % of Living Biomass/Total Biomass (mean ± s.d.), Type III Plants on Soils: 12 days
Experimental: General Experimental Procedure: The field experiments were conducted in isolated ponds in east Texas, United States. The ponds are small (each were 200-500 m^2 in size) in the hardwood forests and each was fully covered with S. molesta plants and also included least duckweed (L. minuta) and Brazillan watermeal (W. brasillensis). The area was divided by plots, each plot had 50 m^2 in area including approximately 40 m^2 of type I and II S. molesta plants on the water surface and 10 m^2 of type III S. molesta plants on soils. Each plot, except a control plot, was treated with 20 L one of the following experimental solutions by Solo 433 motorized backpack sprayer: 0.5% 4-hydroxybenzoic acid, 0.5% 4-hydroxybenzoic acid mixed with 0.25% DAWN® dish soap, 0.5% 4-hydroxybenzoic acid and 0.25% 3,4-dihydroxybenzoic acid, 0.5% 4-hydroxybenzoic acid and 0.25% 3,4-dihydroxybenzoic acid with 0.25% DAWN® dish soap, and 0.25% DAWN® dish soap. Each test condition had three replicates. 12 days after the treatments, plant growth status was photographed and the plant survival rate was measured by three 1×1 m random sample plots for floating plants on the water surface and two samples in 1×1 m random sample plots for plants on soils. Pairwise comparisons for all treatments (including Control) for living biomass were made using Tukey test at alpha=0.05, which was done using SAS (SAS 9.4).

[7] = test system: anthracnose pathogen and N-fixing bacteria in peanut; conditions: high concentrations; cited from earlier work
[8] = test system: tobacco; conditions: from root exudates of tobacco; cited from earlier work
[9] = test system: leaf vegetables; conditions: in vivo; cited from earlier work
[10] = test system: Fusarium oxysporum f. sp. niveum; conditions: cited from earlier work
[11] = test system: Enterbacter ludwigii; conditions: cited from earlier work
[12] = test system: F. oxysporum, F. nivale, Aspergillus flavus, and A. fumigatus; conditions: cited from earlier work
[13] = test system: rhizosphere fungal populations; conditions: cited from earlier work
[14] = listed as 4-hydroxybenzoic acid

## O=C(O)c1ccc(O)c(O)c1 [3,4-dihydroxybenzoic acid]
[1]
  damage to other species tested for selectivity: none of the other species tested for selectivity except A. caroliniana were severely damaged or killed
[2]; 100 mg/L
  effect on root mass of king protea explants: increase the root mass
[2]; 500 mg/L
  effect on growth of king protea explants: inhibit growth
[2]
  impacts on root growth of king protea explants (patent's reading of the cited data): no significant impacts
[3]
  small S. molesta plants dead: > 80%
  new growths induced (small plants): type I only
  fate of newly emerged type I plants: all newly emerged type I plants were killed
  type III S. molesta plants on the top layer of the dense mats killed or severely injured: 100%

## O=C(O)c1ccc(O)cc1 [4-Hydroxybenzoic acid]
[4]
  inhibitory activity on the growth of taro: weaker inhibitory activity than benzoic acid
[5]
  Shannon-Wiener index, rhizosphere bacterial population: decrease
[6]
  induced new growth type: primarily type I and II
  % of Living Biomass/Total Biomass (mean ± s.d.), Type I and II Plants on Water Surface: 34.7%
  % of Living Biomass/Total Biomass (mean ± s.d.), Type III Plants on Soils: 14.3%
[6]; [14]
  % of Living Biomass/Total Biomass (mean ± s.d.), Type I and II Plants on Water Surface: 34.7%
  % of Living Biomass/Total Biomass (mean ± s.d.), Type III Plants on Soils: 14.3%
[7]
  effect on anthracnose pathogen and N-fixing bacteria: inhibited
[8]
  activity on growth and photosynthetic rate in tobacco: some inhibitory activity
[9]
  inhibitory activity in growth of some leaf vegetables: weaker than adipic acid
[1]
  damage to other species tested for selectivity: none of the other species tested for selectivity except A. caroliniana were severely damaged or killed
[10]
  mycelial growth: stimulate the mycelial growth
[11]
  growth of Enterbacter ludwigii: stimulated the growth
[12]
  hypha growth and spore proliferation: promote the hypha growth and spore proliferation
[3]
  small S. molesta plants dead: > 90%
  new growths induced (small plants): type I only
  fate of newly emerged type I plants: all newly emerged type I plants were killed
  type III S. molesta plants on the top layer of the dense mats killed or severely injured: 100%
[13]
  Shannon-Wiener index, rhizosphere fungal populations: increase
